Numbered stars: 1 amine (or outer) side, 2 acyl side, 3 side chain; on linkers, the order of the positions; unused ones are H or OH. Side chains are listed from the residue outwards. Peptide text beside a SMILES is read from it. * marks the point of attachment. C20 diacid = O=C(O)CCCCCCCCCCCCCCCCCCC(=O)*; C18 diacid = O=C(O)CCCCCCCCCCCCCCCCC(=O)*; γGlu = O=C(O)[C@H](CCC(=O)[*:2])N[*:1]
Columns and labels:
[1] = molecular target: T1, rat amylin receptor (rat calcitonin receptor + rat RAMP 3) (Rattus norvegicus, UniProt P32214+Q9JJ73); assay: Assay (VI) binding to the rat amylin receptor (membrane); details: membranes; read-out: rAmylin-R binding IC50
T1 construct: expressed in transfected cells; host or cells: BHK tk'ts 13 (transient, FuGENE 6)
T1 sequence (P32214 25-479 isoform P32214-2 limits assumed): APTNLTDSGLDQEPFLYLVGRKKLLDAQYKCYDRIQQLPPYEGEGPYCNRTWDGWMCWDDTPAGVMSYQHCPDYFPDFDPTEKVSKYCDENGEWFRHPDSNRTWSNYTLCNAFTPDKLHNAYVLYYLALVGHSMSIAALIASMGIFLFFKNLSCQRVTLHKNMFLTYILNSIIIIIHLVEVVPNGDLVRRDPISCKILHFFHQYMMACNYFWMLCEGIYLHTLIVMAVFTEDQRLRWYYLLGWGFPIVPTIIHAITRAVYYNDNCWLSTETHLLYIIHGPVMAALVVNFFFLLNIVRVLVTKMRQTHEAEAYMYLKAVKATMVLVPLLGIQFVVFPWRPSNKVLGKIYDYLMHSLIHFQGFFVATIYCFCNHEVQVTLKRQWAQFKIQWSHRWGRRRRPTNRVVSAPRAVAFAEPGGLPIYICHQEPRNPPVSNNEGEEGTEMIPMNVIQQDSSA
T1 sequence (Q9JJ73 23-147 partner): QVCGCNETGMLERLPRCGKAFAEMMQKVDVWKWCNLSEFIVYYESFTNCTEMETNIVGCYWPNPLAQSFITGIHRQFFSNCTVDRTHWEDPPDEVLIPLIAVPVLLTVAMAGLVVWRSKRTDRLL
Protocol: The assay was performed as described above (Assay (V)—Determination of binding to the human amylin receptor) with the exception that we used membranes prepared from BHK tk'ts 13 cells that were transiently transfected with the rat calcitonin receptor rat RAMP 3 at an equimolar ratio […]. The BHK tk'ts 13 cells were transiently transfected with rat calcitonin receptor using FuGENE® 6 (Roche), according to the manufacturer's recommendations. Cells were grown in DMEM with 10% FBS and 1% Pen/Strep. Approximately 48 hours after transfection, the cells were harvested and membranes were prepared.

[2] = molecular target: T2, human calcitonin (a) receptor, BHK570 cells (Homo sapiens, UniProt P30988); assay: Assay (II)b functional CRE-luciferase assay without albumin, human calcitonin receptor; type: cell-based; details: Tested without HSA; read-out: hCTR funct. EC50
T2 construct: host or cells: BHK570
T2 sequence (P30988 25-474): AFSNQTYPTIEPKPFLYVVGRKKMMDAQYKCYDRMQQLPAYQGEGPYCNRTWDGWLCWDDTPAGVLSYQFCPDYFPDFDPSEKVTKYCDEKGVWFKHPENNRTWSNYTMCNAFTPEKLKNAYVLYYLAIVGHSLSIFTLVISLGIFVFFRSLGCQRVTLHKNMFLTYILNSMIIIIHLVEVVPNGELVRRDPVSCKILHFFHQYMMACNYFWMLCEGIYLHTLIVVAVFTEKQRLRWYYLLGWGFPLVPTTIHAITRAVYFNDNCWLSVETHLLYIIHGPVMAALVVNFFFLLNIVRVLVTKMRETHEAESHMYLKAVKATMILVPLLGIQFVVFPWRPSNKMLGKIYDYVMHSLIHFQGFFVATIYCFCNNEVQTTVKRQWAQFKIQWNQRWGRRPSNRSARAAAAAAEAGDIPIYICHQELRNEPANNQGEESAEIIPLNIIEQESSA
Summary of the method: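 BHK570 cells stably expressing human calcitonin receptor with CRE-luciferase reporter, plus RAMP-3 for the amylin 3(a) line. Cells stimulated 3 hours at 37 °C in albumin-free assay medium (0.1% ovalbumin, 10 mM Hepes pH 7.4); cAMP-driven luciferase read by luminescence.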

[3] = molecular target: T3, human amylin receptor (human calcitonin receptor + human RAMP3), BHK tk'ts 13 cells (Homo sapiens, UniProt O60896+P30988); assay: Assay (Va) binding to the human amylin receptor (whole cell); details: read-out: hAmylin-R binding IC50
T3 construct: expressed in transfected cells; host or cells: BHK tk'ts 13
Protocol: The day before the assay the cells were Seeded into Poly-D-Lysin coated 384W Opaque White, BD BioCoat plates (10000 cells/well) and Incubated overnight at 37° C., 5% CO2, 95% humidity.

T3 sequence (O60896 24-148, one chain of several): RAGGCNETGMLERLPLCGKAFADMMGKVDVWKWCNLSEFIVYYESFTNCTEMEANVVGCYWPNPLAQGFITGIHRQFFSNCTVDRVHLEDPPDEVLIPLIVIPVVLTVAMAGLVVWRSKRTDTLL

IC50 [1] | EC50 [2] | IC50 [3] | SMILES
0.025 nM | 0.022 nM | 1.23 nM | CC(C)C[C@H](NC(=O)[C@H](C)NC(=O)[C@H](C)NC(=O)[C@@H](NC(=O)[C@H](CO)NC(=O)[C@H](CC(C)C)NC(=O)[C@H](CCC(=O)O)NC(=O)[C@H](CO)NC(=O)[C@H](C)NC(=O)[C@H](C)NC(=O)CC[C@H](NC(=O)CCCCCCCCCCCCCCCCCCC(=O)O)C(=O)O)[C@@H](C)O)C(=O)NCC(=O)N[C@@H](CCCNC(=N)N)C(=O)N[C@@H](CC(C)C)C(=O)N[C@@H](CO)C(=O)N[C@@H](C)C(=O)N[C@@H](CCC(=O)O)C(=O)N[C@@H](CC(C)C)C(=O)N[C@@H](Cc1c[nH]cn1)C(=O)N[C@@H](CCC(=O)O)C(=O)N[C@@H](CC(C)C)C(=O)N[C@@H](C)C(=O)N[C@H](C(=O)N[C@@H](Cc1ccc(O)cc1)C(=O)N1CCC[C@H]1C(=O)N[C@@H](CCCNC(=N)N)C(=O)N[C@H](C(=O)N[C@@H](CCC(=O)O)C(=O)N[C@H](C(=O)NCC(=O)N[C@@H](CO)C(=O)NCC(=O)N[C@@H](CO)C(=O)N1CCC[C@H]1C(N)=O)[C@@H](C)O)[C@@H](C)O)[C@@H](C)O [compound 57, [N-terminal(C20 diacid-gGlu), 1A, 23Y, 30S, 31G]mimylin] ({C20 diacid-γGlu}-AASELSTAALGRLSAELHELATYPRTETGSGSP-NH2)
0.046 nM | 0.027 nM |  | CC(=O)N[C@@H](C)C(=O)N[C@@H](CO)C(=O)N[C@@H](CCCCNC(=O)CC[C@H](NC(=O)CCCCCCCCCCCCCCCCCCC(=O)O)C(=O)O)C(=O)N[C@@H](CC(C)C)C(=O)N[C@@H](CO)C(=O)N[C@H](C(=O)N[C@@H](C)C(=O)N[C@@H](C)C(=O)N[C@@H](CC(C)C)C(=O)NCC(=O)N[C@@H](CCCNC(=N)N)C(=O)N[C@@H](CC(C)C)C(=O)N[C@@H](CO)C(=O)N[C@@H](C)C(=O)N[C@@H](CCC(=O)O)C(=O)N[C@@H](CC(C)C)C(=O)N[C@@H](Cc1c[nH]cn1)C(=O)N[C@@H](CCC(=O)O)C(=O)N[C@@H](CC(C)C)C(=O)N[C@@H](C)C(=O)N[C@H](C(=O)N[C@@H](CC(C)C)C(=O)N1CCC[C@H]1C(=O)N[C@@H](CCCNC(=N)N)C(=O)N[C@H](C(=O)N[C@@H](CCC(=O)O)C(=O)N[C@H](C(=O)NCC(=O)N[C@@H](CO)C(=O)NCC(=O)N[C@@H](CO)C(=O)N1CCC[C@H]1C(N)=O)[C@@H](C)O)[C@@H](C)O)[C@@H](C)O)[C@@H](C)O [compound 68, [N-terminal(acetyl), des1, 4K(C20 diacid-gGlu), 30S, 31G]mimylin] (Ac-ASK([γGlu-C20 diacid])LSTAALGRLSAELHELATLPRTETGSGSP-NH2)
0.146 nM |  | 0.278 nM | CC(C)C[C@H](NC(=O)[C@H](CCCNC(=N)N)NC(=O)CNC(=O)[C@H](CC(C)C)NC(=O)[C@@H](NC(=O)[C@H](C)NC(=O)[C@@H](NC(=O)[C@H](CO)NC(=O)[C@H](CC(C)C)NC(=O)[C@H](CCC(=O)O)NC(=O)[C@H](CO)NC(=O)[C@H](C)NC(=O)CC[C@H](NC(=O)CCCCCCCCCCCCCCCCCCC(=O)O)C(=O)O)[C@@H](C)O)C(C)C)C(=O)N[C@@H](CO)C(=O)N[C@@H](CCC(N)=O)C(=O)N[C@@H](CCC(=O)O)C(=O)N[C@@H](CC(C)C)C(=O)N[C@@H](Cc1c[nH]cn1)C(=O)N[C@@H](CCC(=O)O)C(=O)N[C@@H](CC(C)C)C(=O)N[C@@H](CCC(N)=O)C(=O)N[C@H](C(=O)N[C@@H](Cc1ccc(O)cc1)C(=O)N1CCC[C@H]1C(=O)N[C@@H](CCCNC(=N)N)C(=O)N[C@H](C(=O)N[C@@H](CCC(=O)O)C(=O)N[C@H](C(=O)NCC(=O)N[C@@H](CO)C(=O)NCC(=O)N[C@H](C(=O)N[C@@H](Cc1ccc(O)cc1)C(N)=O)[C@@H](C)O)[C@@H](C)O)[C@@H](C)O)[C@@H](C)O [compound 114, [N-terminal(C20 diacid-gGlu), des1, 9V, 15Q, 21Q, 23Y, 30S, 31G, 32T, 33Y]mimylin]
0.162 nM | 0.045 nM | 22.9 nM | CC(C)C[C@H](NC(=O)[C@H](CCC(=O)O)NC(=O)[C@H](C)NC(=O)[C@@H](NC(=O)[C@H](CC(C)C)NC(=O)[C@H](CCCNC(=N)N)NC(=O)CNC(=O)[C@H](CC(C)C)NC(=O)[C@@H](NC(=O)[C@H](C)NC(=O)[C@@H](NC(=O)[C@@H](NC(=O)[C@H](CC(C)C)NC(=O)[C@H](CCC(=O)O)NC(=O)[C@H](CO)NC(=O)[C@H](C)NC(=O)CC[C@H](NC(=O)CCCCCCCCCCCCCCCCC(=O)O)C(=O)O)[C@@H](C)O)[C@@H](C)O)C(C)C)[C@@H](C)O)C(=O)N[C@@H](Cc1c[nH]cn1)C(=O)N[C@@H](CCC(=O)O)C(=O)N[C@@H](CC(C)C)C(=O)N[C@@H](CCC(=O)O)C(=O)N[C@H](C(=O)N[C@@H](CC(C)C)C(=O)N1CCC[C@H]1C(=O)N[C@@H](CCCNC(=N)N)C(=O)N[C@H](C(=O)N[C@@H](CCC(=O)O)C(=O)N[C@H](C(=O)NCC(=O)N[C@H](C(=O)NCC(=O)N[C@H](C(=O)N1CCC[C@H]1C(N)=O)[C@@H](C)O)[C@@H](C)O)[C@@H](C)O)[C@@H](C)O)[C@@H](C)O [compound 105, [N-terminal(C18 diacid-gGlu), des1, 6T, 9V, 14T, 21E, 30T, 31G, 32T]mimylin] ({C18 diacid-γGlu}-ASELTTAVLGRLTAELHELETLPRTETGTGTP-NH2)

Source: US9593149B2, “Amylin and calcitonin receptor agonist” (Novo Nordisk A/S, priority 2014, dated 2017)
